tested on: HCT116 cells; assay: Cell viability assay (CellTiter-Glo, 72 hours) in HCT116 human colorectal cancer cells; format: cell-based; conditions: Homo sapiens, HCT-116; Table 5; HCT116, 72 hours; read-out: Activity
How it was run: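 2,000 cells/well adhered overnight, then compound added by digital dispenser with DMSO normalized to 0.5%. Viability read after 72 h at 37 °C by ATP-based CellTiter-Glo luminescence. IC50 from ten-point curves baseline-corrected to vehicle, five-parameter asymmetric least-squares fit.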

Row | SMILES | IC50 [nM]
1 | CC#CCN1C(=O)c2ccccc2Sc2cc(Nc3cncnc3)ccc21 [10-(But-2-yn-1-yl)-7-(pyrimidin-5-ylamino)dibenzo[b,f][1,4]thiazepin-11 (10H)-one] | < 500
2 | CC#CCN1C(=O)c2ccccc2Sc2cc(Nc3cc(C#N)ncn3)ccc21 [6-((10-(But-2-yn-1-yl)-11-oxo-10,11-dihydrodibenzo[b,f][1,4]thiazepin-7-yl)amino)pyrimidine-4-carbonitrile] | < 500
3 | CCC/C=C/CN1C(=O)c2ccccc2Sc2cc(Nc3cc4ccccc4cn3)ccc21 [(E)-10-(Hex-2-en-1-yl)-7-(isoquinolin-3-ylamino)dibenzo[b,f][1,4]thiazepin-11 (10H)-one] | < 500

same assay, conditions: Table 3; HCT116, 72 hours; read-out: Activity

Row | SMILES | IC50 [nM]
4 | CC#CCN1C(=O)c2ccccc2Sc2cc(NC(=O)Nc3ccc(OC)cc3)ccc21 [Table 3: —CH2CCMe; 4-MeOPh; CH/CH] | < 500
5 | CC#CCN1C(=O)c2ccccc2Sc2cc(NC(=O)N[C@H]3C[C@H](OC)C3)ccc21 [Table 3: —CH2CCMe; trans-3-MeOcBu; CH/CH] | < 500
6 | CC#CCN1C(=O)c2ccccc2Sc2cc(NC(=O)N[C@H]3C[C@@H](O)C3)ccc21 [Table 3: —CH2CCMe; cis-3-OH-cBu; CH/CH] | < 500

same assay, conditions: Table 5; HCT116, 72 hours; read-out: Activity

Row | SMILES | IC50 [nM]
7 | CC#CCN1C(=O)c2ccccc2Sc2cc(Nc3ncc(C)cc3C)cnc21 | < 500
8 | CC#CCN1C(=O)c2ccccc2Sc2cc(Nc3nccc(C#N)c3C)cnc21 | < 500
9 | CC=CCN1C(=O)c2ccccc2Sc2cc(Nc3ncc(C)cc3C)ccc21 | < 500
10 | Cc1ccc(F)c(Nc2cnc3c(c2)Sc2ccccc2C(=O)N3CC#CCl)n1 | < 500

same assay, conditions: Table 6; HCT116, 72 hours; read-out: Activity

Row | SMILES | IC50 [nM]
11 | CC#CCN1C(=O)c2ccccc2Sc2cc(NC3CC4(CC(=O)C4)C3)cnc21 | < 500
12 | CC#CCN1C(=O)c2ccccc2Sc2cc(NCCCOC)ccc21 [Table 6: —CH2CCMe; (CH2)3OMe; CH/CH; S] | < 500
13 | CC#CCN1C(=O)c2ccccc2Cc2cc(NC3CCCOC3)ccc21 (centres unmarked) | < 500
14 | CC#CCN1C(=O)c2ccccc2Cc2cc(NC3CC(O)C3)ccc21 (centres unmarked) [Table 6: —CH2CCMe; 3-HOcBu; CH/CH; CH2] | < 500
15 | CC#CCN1C(=O)c2ccccc2Sc2cc(NC34CC(OC)(C3)C4)cnc21 | < 500

same assay, conditions: Table 7; cell viability assay, CellTiter-Glo, 72 hours; scaffold drawing 42 with R^2, R^3, X/Y, Z; read-out: Activity

Row | SMILES | IC50 [nM]
16 | COCCN1C(=O)c2ccccc2Sc2cc(NC(=O)c3cccc(Cl)c3)ccc21 [—(CH2)2OMe; 3-ClPh; CH/CH; S] | 1000 to 5000
17 | COCCN1C(=O)c2ccccc2Sc2cc(NC(=O)c3ccc(OC)cc3C)ccc21 [—(CH2)2OMe; 2-Me,4-MeOPh; CH/CH; S] | 1000 to 5000
18 | COCCN1C(=O)c2ccccc2Sc2cc(NC(=O)C3CCCCC3)ccc21 [—(CH2)2OMe; cHex; CH/CH; S] | 1000 to 5000
19 | COCCN1C(=O)c2ccccc2Sc2cc(NC(=O)c3cccc(C#N)c3)ccc21 [—(CH2)2OMe; 3-CNPh; CH/CH; S] | 1000 to 5000

same assay, conditions: Table 8; analogs of scaffold drawing 43 defined by R^2, R^3, X/Y, W; read-out: Activity (IC50 class, cell viability assay)

Row | SMILES | IC50 [nM]
20 | CC#CCN1C(=O)c2cc(F)ccc2Sc2cc(NC(=O)[C@@H]3C[C@H]3CO)cnc21 (relative stereo) [—CH2CCMe; trans-2-HOCH2-cPr; CH/CF; N] | < 500
21 | CO[C@H]1C[C@H](C(=O)Nc2ccc3c(c2)Sc2ccc(F)cc2C(=O)N3CC#CCF)C1 [—CH2CCCH2F; trans-3-MeOcBu; CH/CF; CH] | < 500
22 | CC#CCN1C(=O)c2ccccc2Sc2cc(NC(=O)c3ccc(OCF)cc3)ccc21 [—CH2CCMe; 4-FH2COPh; CH/CH; CH] | < 500
23 | CC#CCN1C(=O)c2ccccc2Sc2cc(NC(=O)CC3COC3)cnc21 [—CH2CCMe; (oxetan-3-yl)CH2; CH/CH; N] | < 500
24 | COC12CC(C(=O)Nc3cnc4c(c3)Sc3ccc(F)cc3C(=O)N4CC#CC3CC3)(C1)C2 | < 500
25 | CC#CCN1C(=O)c2ccc(Cl)cc2Sc2cc(NC(=O)C34CC(O)(C3)C4)ccc21 | < 500
26 | COCC=CC(=O)Nc1ccc2c(c1)Sc1ccccc1C(=O)N2CC#CC(F)(F)F [—CH2CCCF3; CH═CHCH2OMe; CH/CH; CH] | < 500

same assay, conditions: Table 9; HCT116, 72 hours; read-out: Activity

Row | SMILES | IC50 [nM]
27 | CC1c2ccccc2C(=O)N(CC#CC2CC2)c2ccc(NC(=O)[C@H]3C[C@H](O)C3)cc21 (some centres unmarked) | < 500
28 | CC#CCN1C(=O)c2ccccc2C(C)c2cc(NC(=O)CC3COC3)ccc21 (centres unmarked) | < 500
29 | CC#CCN1C(=O)c2ccccc2C(C#N)c2cc(NC(=O)C3CC4(CC(=NO)C4)C3)ccc21 (centres unmarked) | < 500

Source: US20260097047A1, “Small molecule inhibitors of the ribosome biogenesis factor NVL2” (Board of Regents, The University of Texas System, priority 2023, published 2026)
